# Results as given in patent publication US7875601B2, “Cancer treatment with epothilones” (Novartis AG, priority 1998, dated 2011).
# “And” between values parts separate entries of the source, which are not always exact repeats. Equal entries are not always repeated. “Also recorded” adds a separate entry of the source. Where two headings read alike, the source gives them in different places. Marks after values point to notes of the source that are not given here.
# What was measured:
# [1] = tested on: human KB-8511 epidermoid carcinoma; assay type: in vivo, female BALB/c nude mice; settings: for % Body Weight Change / D Body Weight / D Tumor Volume (mm^3): mean ± SEM
# Protocol: The human epidermal (mouth) carcinoma cell line KB-8511 (a P-gp over-expressing cell line derived from the epidermoid (mouth) KB-31 carcinoma cell line) is obtained from Dr. R. M. Baker, Roswell Park Memorial Institute (Buffalo, N.Y., USA) (for description see Akiyama et al., Somat. Cell. Mol. Genetics 11, 117-126 (1985) and Fojo A., et al., Cancer Res. 45, 3002-3007 (1985)) and is cultured as previously described (Meyer, T., et al., Int. J. Cancer 43 851-856 (1989)).
# Female or male BALB/c nu/nu (nude) mice are kept under sterile conditions (10 to 12 mice per Type III cage) with free access to food and water. Mice weigh between 20 and 25 grams at the time of tumor implantation. Tumors are established by subcutaneous injection of cells (minimum 2×10^6 cells in 100 μl PBS or medium) in carrier mice (4-8 mice per cell line). The resulting tumors are serially passaged for a minimum of three consecutive transplantations prior to start of treatment. Tumor fragments (approx. 25 mg) are implanted s.c. into the left flank of animals with a 13-gauge trocar needle while the mice are exposed to Forene (Abbott, Switzerland) anesthesia.
# Tumor growth and body weights are monitored once or twice weekly. All treatments are administered intravenously (i.v.) and are initiated when a mean tumor volume of approximately 100 to 250 mm^3 is attained, depending upon the tumor type. Tumor volumes are determined using the formula […] (see Cancer Chemother. Pharmacol. 24:148-154, [1989]). Treatments with epothilone B vary the dose and the frequency of administration. Comparator agents are administered according to previously determined optimal treatment regimens. In addition to presenting changes in tumor volumes over the course of treatment, antitumor activity is expressed as T/C % (mean increase of tumor volumes of treated animals divided by the mean increase of tumor volumes of control animals multiplied by 100). Tumor. regression (%) represents the smallest mean tumor volume compared to the mean tumor volume at the start of treatment, according to the formula Regression (%)=(1−Vend/Vstart)×100(Vend=final mean tumor volume, Vstart=mean tumor volume at the start of treatment. Any animals in which the tumor has reached a size exceeding approximately 1.5 to 2.5 cm^3 are sacrificed. Details can be found below.
# [2] = Two-week intravenous toxicity study in mice; assay type: in vivo, normal female BALB/c mice
# Protocol: In order to assess the sub-chronic intravenous toxicity of epothilone B, a non-GLP two-week i.v. toxicity study in non-tumor bearing, normal female BALB/c mice is conducted, involving analysis of mortality, clinical signs, body weight, food consumption, hematology, clinical biochemistry, urinalysis, and organ weights as well as macro and microscopic examinations. The study is based on two different dosing regiments of epothilone B of 3 mg/kg and 10 mg/kg, respectively, administered on days 1 and 8 (8 animals per group). Half of the animals are killed on day 15 (main group) and necropsy is performed. For the other half (recovery group) a recovery period of 5 weeks is allowed after administration of the second dose before sacrifice and subsequent necropsy on day 43.
# [3] = tested on: A549 non small cell lung tumors; experiment: Antitumor activity on A549 tumors, regimen comparison (Example 7); settings: for % Regression / % T/C / Delta % Body Weight / Delta Mean Tumor Vol. (mm^3): day 37
# Protocol: 3-10 million cells are implanted s.c. into the right axillary (lateral) region of outbred athymic (nu/nu) mice, and are allowed to grow until a tumor volume of approximately 100 mm^3 is established. […] Positive controls are carried out with clinical formulations of TAXOL® diluted 6 fold with D5W and administered i.v. 3×/week.
# Antitumor activity is expressed as % T/C (comparing Δ tumor volumes for treatment group to vehicle control group) at the end of the experiment. Regressions are calculated using the formula: −(T/T0−1)×100%, where T is the tumor volume for the treatment group at the end of the experiment, and T0 is the tumor volume at the beginning of the experiment. Statistical significance is evaluated using a one-tailed Student's t-test.
# [4] = 3 mg/kg i.v. on days 1 and 8, day 15
# [5] = 10 mg/kg i.v. on days 1 and 8, day 15
# [6] = both dose levels (3 and 10 mg/kg), day 15
compound,measurement,setting,value
C/C(=C\c1csc(C)n1)[C@@H]1C[C@@H]2O[C@]2(C)CCC[C@H](C)[C@H](O)[C@@H](C)C(=O)C(C)(C)[C@@H](O)CC(=O)O1 [epothilone B],Regression,"[1]; 1 mg/kg, i.v. once per week",none
same,Survival (No. alive/total),"[1]; 1 mg/kg, i.v. once per week",8/8
same,T/C,"[1]; 1 mg/kg, i.v. once per week, final",81%
same,% Body Weight Change,"[1]; 1 mg/kg, i.v. once per week",12 ± 1%
same,D Body Weight,"[1]; 1 mg/kg, i.v. once per week",2.6 ± 0.3 g
same,D Tumor Volume (mm^3),"[1]; 1 mg/kg, i.v. once per week",1620 ± 290 mm^3
same,Survival (No. alive/total),"[1]; 2 mg/kg, i.v. once per week",8/8
same,T/C,"[1]; 2 mg/kg, i.v. once per week, final",14%
same,% Body Weight Change,"[1]; 2 mg/kg, i.v. once per week",5 ± 2%
same,D Body Weight,"[1]; 2 mg/kg, i.v. once per week",1.1 ± 0.4 g
same,D Tumor Volume (mm^3),"[1]; 2 mg/kg, i.v. once per week",289 ± 204 mm^3
same,mice with undetectable tumors at the end of the experiment,[1]; 2 mg/kg/week,⅛
same,Survival (No. alive/total),"[1]; 4 mg/kg, i.v. once on day 13",8/8
same,T/C,"[1]; 4 mg/kg, i.v. once on day 13, final",24%
same,% Body Weight Change,"[1]; 4 mg/kg, i.v. once on day 13",3 ± 2%
same,D Body Weight,"[1]; 4 mg/kg, i.v. once on day 13",0.6 ± 0.6 g
same,D Tumor Volume (mm^3),"[1]; 4 mg/kg, i.v. once on day 13",484 ± 103 mm^3
same,Regression,"[1]; 4 mg/kg, i.v. once on day 13, transient, day 25 post transplantation",−51%
same,Survival (No. alive/total),"[1]; 4 mg/kg, i.v. once per week",8/8
same,T/C,"[1]; 4 mg/kg, i.v. once per week (days 13, 21 and 27)",Regression
same,% Body Weight Change,"[1]; 4 mg/kg, i.v. once per week",−5±7% and −5 ± 3%
same,D Body Weight,"[1]; 4 mg/kg, i.v. once per week",-1.1 ± 0.4 g
same,D Tumor Volume (mm^3),"[1]; 4 mg/kg, i.v. once per week",−107 ± 14 mm^3
same,mice with undetectable tumors at the end of the experiment,[1]; 4 mg/kg/week,⅝
same,body weight loss,[2]; 3 mg/kg i.v. on days 1 and 8,only apparent in the second week
same,atrophy of the thymus,[2]; [4],moderate
same,"number of leukocytes, especially neutrophils and lymphocytes",[2]; [4],reduction in the number of leukocytes
same,sternal bone marrow histology,[2]; [4],minimal to slight erythroid and myeloid atrophy
same,organ weights at the end of the recovery period,"[2]; 3 mg/kg i.v. on days 1 and 8, day 43",comparable to those of control animals
same,mortalities throughout the treatment period,"[2]; 3 mg/kg i.v. on days 1 and 8, days 1-14",No mortalities
same,survival of the recovery group,"[2]; 3 mg/kg i.v. on days 1 and 8, up to day 43",all animals of the recovery group survive until the end of the study; also recorded: tolerated without mortality
same,hematological parameters at the end of the recovery period,"[2]; 3 mg/kg recovery group, day 43",normal for two out of the four animals
same,survival of the recovery group,[2]; 10 mg/kg i.v. on days 1 and 8,all animals of the recovery group have to be sacrificed prematurely on day 19; also recorded: death (or sacrifice) of all treated animals
same,atrophy of the thymus,[2]; [5],marked
same,"number of leukocytes, especially neutrophils and lymphocytes",[2]; [5],reduction in the number of leukocytes
same,spleen histology,[2]; [5],minimal lymphoid atrophy
same,sternal bone marrow histology,[2]; [5],minimal to slight myeloid hypoplasia
same,mortalities throughout the treatment period,"[2]; 10 mg/kg i.v. on days 1 and 8, days 1-14",No mortalities
same,body weight loss,"[2]; 10 mg/kg i.v. on days 1 and 8, first and second week",Body weight loss is observed for all animals
same,clinical chemistry profile,[2]; 3 and 10 mg/kg i.v. on days 1 and 8,Only minor changes
same,intestinal mucosa (small and large intestine) histology,[2]; [6],Minimal single cell necrosis
same,organ weights,[2]; [6],"pronounced changes in thymus, spleen, and uterus weights"
same,Dead/Total,[3]; 0.5 mg/kg i.v. 5x/week,0/8
same,% Regression,[3]; 0.5 mg/kg i.v. 5x/week,none
same,% T/C,[3]; 0.5 mg/kg i.v. 5x/week,41** %
same,Delta % Body Weight,[3]; 0.5 mg/kg i.v. 5x/week,−23.1%
same,Delta Mean Tumor Vol. (mm^3),[3]; 0.5 mg/kg i.v. 5x/week,178 mm^3
same,% T/C,"[3]; 0.5 mg/kg i.v. 5x/week, listed as Epothilone B",41%
same,body weight loss,"[3]; 0.5 mg/kg, 5×/week",23%
same,Dead/Total,[3]; 1.5 mg/kg i.v. 3x/week,8/8
same,Dead/Total,"[3]; 1.5 mg/kg i.v. 3x/week, listed as Epothilone B",all animals have to be euthanatized
same,body weight loss,[3]; 4 mg/kg administered 1×/week,13%
same,Dead/Total,[3]; 4 mg/kg i.v. 1x/week,0/8
same,% Regression,[3]; 4 mg/kg i.v. 1x/week,none
same,% T/C,[3]; 4 mg/kg i.v. 1x/week,7** %
same,Delta % Body Weight,[3]; 4 mg/kg i.v. 1x/week,−13.2%
same,Delta Mean Tumor Vol. (mm^3),[3]; 4 mg/kg i.v. 1x/week,32 mm^3
same,% T/C,"[3]; 4 mg/kg i.v. 1x/week, listed as Epothilone B",7%
same,Dead/Total,[3]; 6 mg/kg i.v. once (day 16),0/8
same,% Regression,[3]; 6 mg/kg i.v. once (day 16),none
same,% T/C,[3]; 6 mg/kg i.v. once (day 16),41** %
same,Delta % Body Weight,[3]; 6 mg/kg i.v. once (day 16),+8.5%
same,Delta Mean Tumor Vol. (mm^3),[3]; 6 mg/kg i.v. once (day 16),178 mm^3
same,% T/C,"[3]; 6 mg/kg i.v. once (day 16), listed as Epothilone B",41%
